Source: US20090023666A1, “Modulators of Hypoxia Inducible Factor-1 and Related Uses” (priority 2006, published 2009)
“Also recorded” adds a separate entry of the source. Where two headings read alike, the source gives them in different places.

What was measured:
IGR-OV1 = assay: Anti-proliferative activity, IGR-OV1; format: cell-based; details: Homo sapiens
Experimental: (§1) FIG. 8 is a graph depicting the mRNA levels of α-1 and α-3 isoforms quantitated by real time RT-PCR (TaqMan) using fluorescent labeled TaqMan probes. Anti-proliferation (IC50 values) activity of BNC4 on indicated cell lines was determined by MTS assay. Total alpha levels (al+a3) were plotted against (1/IC50) X100 values.

[1] = Pharmacokinetics following IP administration in mice; format: in vivo; details: for tlast / Tmax: i.p.; for half-life: read-out: t1/2 (terminal elimination half-life) (converted)
Experimental: FIG. 13 is a graph depicting the pharmacokinetic profiled of BNC4, BP228 and BP244 in mice. The compounds were administered by intraperitoneal (i.p) injection at 2.5 mg/kg and 5.0 mg/kg for BP228 and at 5.0 mg/kg for BNC4 and BP244. The plasma samples were collected at various time points and concentration of compounds was analyzed by LC-MS. Pharmacokinetic parameters are provided in Example 23.
The compounds were administered by intraperitoneal (i.p) injection at 2.5 mg/kg and 5.0 mg/kg for BP228 and at 5.0 mg/kg for BNC4 and BP244. The plasma samples were collected at various time points and concentration of compounds was analyzed by LC-MS.

[2] = tested on: HIF-1α sensitive A549 sentinel line; assay: HIF-1α sensitive A549 sentinel line reporter activity (FACS); format: cell-based; details: 24 hours, 5 nM (FIG. 4)
Experimental: FIGS. 4A-4D are graphs depicting FACS analysis of beta-gal activity in an A549 sentinel line treated with 5 nM of BNC4 (FIG. 4A), BP228 (FIG. 4B), and BP244 (FIG. 4C) in comparison to vehicle only (shown as the shaded portion of the graph) for 24 hours. The graphs indicate frequency of cells (Y-axis) and intensity of fluorescence (X-axis) as measure of pathway activity. The bar chart (FIG. 4D) depicts the relative median fluorescent units of FACS curves.
By using the HIF-1α sensitive A549 sentinel line, the cell line was incubated with either BNC4, BP228 or BP244 for 24 hours and reporter activity was measured by FACS analysis.

C33A = assay: Anti-proliferative activity, C33A; format: cell-based; details: Homo sapiens, C-33-A, read-out: Anti-Proliferative activity IC50
Experimental: as §1

Na-K-ATPase = Na-K-ATPase enzyme assay (inorganic phosphate liberated from ATP), pig brain; format: biochemical; details: pig brain
Experimental: Compounds were tested for their activity on Na-K-ATPase enzyme in an in vitro enzyme assay. The ATPase activity was assayed as the amount of inorganic phosphate liberated from ATP by Dog Kidney or Porcine cerebral cortex Na-K-ATPase.

Caki-1 tumors = assay: In vivo activity against renal cancer cell line Caki-1 xenograft; details: Caki-1 bearing nude mice
Experimental: Female nude mice (nu/nu) between 5 and 6 weeks of age weighing approximately 20 g were implanted subcutaneously (s.c.) by trocar with fragments of human tumors harvested from s.c. grown tumors in nude mice hosts. When the tumors were approximately 60-75 mg in size (about 10-15 days following inoculation), the animals were pair-matched into treatment and control groups. Each group contained 8-10 mice. The administration of drugs or controls began on the day the animals were pair-matched (Day 1). Pumps (Alzet® Model 2002) with a flow rate of 0.5 μl/hr were implanted s.c. between the shoulder blades of each mice. Mice were weighed and tumor measurements were obtained using calipers twice weekly, starting Day 1. These tumor measurements were converted to mg tumor weight by standard formula, (W^2XL)/2. The experiment was terminated when the control group tumor size reached an average of about 1 gram. Upon termination, the mice were weighed, sacrificed and their tumors excised. The tumors were weighed and the mean tumor weight per group was calculated.

LnCaP = assay: Anti-proliferative activity, LnCaP; format: cell-based; details: Homo sapiens, read-out: Anti-Proliferative activity IC50
Experimental: as §1

A549 = assay: cells; format: cell-based; details: Homo sapiens
Experimental: as §1

Caki-1 (CAKI) = assay: cells; format: cell-based; details: Homo sapiens
Experimental: as §1

MCF-7 = assay: Anti-proliferative activity, MCF-7; format: cell-based; details: Homo sapiens
Experimental: as §1

[3] = cited from earlier work
HIF-1α [4] = assay: Inhibition of hypoxia-mediated HIF-1α induction (immunoblotting); format: cell-based, human; details: Caki-1 or Panc-1 cells under hypoxia
HIF-1α [5] = assay: Inhibition of HIF-1α induced under normoxia by PHD inhibitor L-mimosone (Western blotting); format: cell-based; details: Hep3B cells, 200 μM L-mimosone 18 hours
Experimental: Abundance of HIF1α and β-actin was determined by Western blotting.

[6] = IGROV-1, read-out: Anti-Proliferative activity IC50
[7] = mouse, plasma, ip, 5 mg/kg, 5 mg/kg, read-out: tmax
[8] = A549, read-out: Anti-Proliferative activity IC50
[9] = CAKI-1, read-out: Anti-Proliferative activity IC50
[10] = MCF7, read-out: Anti-Proliferative activity IC50

| SMILES | IC50 (IGR-OV1; [6]) [µM] | tlast ([1]; 5 mg/kg) [h] | AUC ([1]; mouse, plasma, ip, 5 mg/kg) [ng·h/mL] | Cmax ([1]; mouse, plasma, ip, 5 mg/kg) [ng/mL] | Tmax [1, 7] [min] | half-life ([1]; mouse, plasma, ip, 5 mg/kg) [min] | reporter activity in A549 sentinel line [2] | IC50 (C33A) [µM] | IC50 (LnCaP; LNCaP) [µM] | IC50 (A549; [8]) [µM] | IC50 (Caki-1 (CAKI); [9]) [µM] | IC50 (MCF-7; [10]) [µM] | further results |
| --- | --- | --- | --- | --- | --- | --- | --- | --- | --- | --- | --- | --- | --- |
| C[C@@H]1O[C@@H](O[C@@H]2C=C3CC[C@@H]4[C@H](CC[C@]5(C)[C@@H](c6ccc(=O)oc6)CC[C@]45O)[C@@]3(C)CC2)[C@H](O)[C@H](O)[C@H]1N [BP244] | 0.0121 | 24 | 4630 | 2120 | 30 | 270 | active in inhibiting the reporter activity | 0.0051 | 0.0138 | 0.0048 | 0.008 | 0.0082 | activity on Na-K-ATPase relative to BP228 (Na-K-ATPase): twice as active as BP228; IC50 (Na-K-ATPase; FIG. 9, read-out: IC50, Na-K-ATPase): 98 µM; adverse effects (Caki-1 tumors; 15 mg/ml pump): without any adverse effects; tumor growth inhibition (TGI) (Caki-1 tumors; 15 mg/ml, s.c. Alzet pump 0.5 μl/hr): 83% |
| C[C@]12CC/C(=N\OCCN3CCCCC3)C=C1CC[C@@H]1[C@@H]2CC[C@]2(C)[C@@H](c3ccc(=O)oc3)CC[C@]12O [BP228] | 0.0319 | 6 | 2350 | 1200 | 4.98 | 114 | active in inhibiting the reporter activity | 0.0072 | 0.0392 | 0.0073 | 0.013 | 0.0198 | tlast ([1]; 2.5 mg/kg): 6 h; Tmax ([1]; 5 mg/kg, listed as BNC228, 5 mg/kg): 5 min; AUC ([1]; mouse, plasma, ip, 2.5 mg/kg): 1020 ng·h/mL; Cmax ([1]; mouse, plasma, ip, 2.5 mg/kg): 715 ng/mL; Tmax ([1]; mouse, plasma, ip, 2.5 mg/kg, 2.5 mg/kg, read-out: tmax): 10 min; half-life ([1]; mouse, plasma, ip, 2.5 mg/kg): 90 min |
| C[C@@H]1O[C@@H](O[C@@H]2C=C3CC[C@@H]4[C@H](CC[C@]5(C)[C@@H](c6ccc(=O)oc6)CC[C@]45O)[C@@]3(C)CC2)[C@H](O)[C@H](O)[C@H]1O [BNC4, proscillaridin, reference compound] |  | 6 | 4570 | 3610 | 15 | 48 | active in inhibiting the reporter activity |  |  |  |  |  | plasma half-life in human ([3]; human, according to the literature): about 40 hours; max. plasma concentration ([3]; in vivo): about 0.1 μg/mL; IC50 (IGR-OV1; IGROV-1, IGR-OV1, Ovarian, read-out: Anti-Proliferative activity IC50): 0.0123 µM; potency in inhibiting HIF-1α expression relative to BNC1 (HIF-1α [4]): about 10 times; IC50 (C33A; C33A, Cervical): 0.0136 µM; IC50 (LnCaP; LnCaP, Prostate): 0.0167 µM; HIF-1α accumulation by L-mimosone (HIF-1α [5]): blocks HIF-1α induction; also recorded: eliminated HIF-1α accumulation by L-mimosone; IC50 (A549; A549, NSCL, read-out: Anti-Proliferative activity IC50): 0.0035 µM; IC50 (Caki-1 (CAKI); CAKI-1, CAKI, Renal, read-out: Anti-Proliferative activity IC50): 0.0075 µM; IC50 (MCF-7; MCF7, MCF-7, Breast (ER+), read-out: Anti-Proliferative activity IC50): 0.0084 µM |
